Results as given in ChEMBL document CHEMBL1143411, “Concentration-effect relationship of ceftazidime explains why the time above the MIC is 40 percent for a static effect in vivo” (Antimicrob Agents Chemother, 2007).
In brackets after ≈: the same amount, converted by molar mass.

Tests used:
Mus musculus [1] = assay: %fT>MIC in mouse at 129.7 mg/kg administered every 8 hrs; type: ADME, organism-based; parameters: dose 129.7 mg/kg; conditions: in vivo
Pseudomonas aeruginosa [2] = assay: Antibacterial activity against Pseudomonas aeruginosa ATCC 27853 assessed as maximum bacterial kill rate by time-kill study; type: functional
Mus musculus [3] = assay: %fT>MIC in mouse at 2.12 mg/kg administered every 2 hrs; type: ADME, organism-based; parameters: dose 2.12 mg/kg; conditions: in vivo
[4] = Elimination rate constant in human; type: ADME, organism-based; conditions: in vivo
Pseudomonas aeruginosa [5] = assay: Antibacterial activity against Pseudomonas aeruginosa ATCC 27853 by microdilution method; type: functional, organism-based
Mus musculus [6] = assay: %fT>MIC in mouse at 9.29 mg/kg administered every 4 hrs; type: ADME, organism-based; parameters: dose 9.29 mg/kg; conditions: in vivo
[7] = Volume of distribution in human; type: ADME, organism-based; conditions: in vivo, read-out: Vc
[8] = Elimination rate constant in mouse; type: ADME, organism-based; conditions: in vivo
Homo sapiens [9] = assay: %fT>MIC in human at 38.9 mg/kg administered every 6 hrs; type: ADME, organism-based; parameters: dose 38.9 mg/kg; conditions: in vivo
Mus musculus [10] = assay: %fT>MIC in mouse at 4.60 mg/kg administered every 3 hrs; type: ADME, organism-based; parameters: dose 4.6 mg/kg; conditions: in vivo, 4.6 mg/kg
Pseudomonas aeruginosa [11] = assay: Antibacterial activity against Pseudomonas aeruginosa ATCC 27853 assessed as bacterial growth rate by time-kill study; type: functional
Homo sapiens [12] = assay: %fT>MIC in human at 59.8 mg/kg administered every 8 hrs; type: ADME, organism-based; parameters: dose 59.8 mg/kg; conditions: in vivo
Homo sapiens [13] = assay: %fT>MIC in human at 121 mg/kg administered every 12 hrs; type: ADME, organism-based; parameters: dose 121 mg/kg; conditions: in vivo
[14] = Volume of distribution in mouse; type: ADME, organism-based; conditions: in vivo, read-out: Vc
Mus musculus [15] = assay: %fT>MIC in mouse at 35.6 mg/kg administered every 6 hrs; type: ADME, organism-based; parameters: dose 35.6 mg/kg; conditions: in vivo
Homo sapiens [16] = assay: %fT>MIC in human at 20.2 mg/kg administered every 4 hrs; type: ADME, organism-based; parameters: dose 20.2 mg/kg; conditions: in vivo

**Q.** For CC(C)(O/N=C(\C(=O)N[C@@H]1C(=O)N2C(C(=O)[O-])=C(C[n+]3ccccc3)CS[C@H]12)c1csc(N)n1)C(=O)O [CEFTAZIDIME], which “fT>MIC” value (Mus musculus [1]) is on record?
**A.** 35.7%

**Q.** And the Activity (Pseudomonas aeruginosa [2])?
**A.** 4.15 h⁻¹

**Q.** And the “fT>MIC” value (Mus musculus [3])?
**A.** 37.3%

**Q.** And the k el [4]?
**A.** 0.000128 s⁻¹

**Q.** What about the EC50 (Pseudomonas aeruginosa [5]) of the same compound?
**A.** 1.22 µg/mL (≈ 2.23 µM)

**Q.** What about the “fT>MIC” value (Mus musculus [6]) of the same compound?
**A.** 37.6%

**Q.** And the Vd [7]?
**A.** 1.4 L

**Q.** What about the k el [8] of the same compound?
**A.** 0.000544 s⁻¹

**Q.** What about the “fT>MIC” value (Homo sapiens [9]) of the same compound?
**A.** 36.3%

**Q.** And the “fT>MIC” value (Mus musculus [10])?
**A.** 38.1%

**Q.** And the Activity (Pseudomonas aeruginosa [11])?
**A.** -1.41 h⁻¹

**Q.** What about the “fT>MIC” value (Homo sapiens [12]) of the same compound?
**A.** 37.9%

**Q.** And the “fT>MIC” value (Homo sapiens [13])?
**A.** 37.7%

**Q.** And the Vd [14]?
**A.** 0.5 L/kg

**Q.** And the “fT>MIC” value (Mus musculus [15])?
**A.** 36.5%

**Q.** And the “fT>MIC” value (Homo sapiens [16])?
**A.** 23.7%
